In patent publication US12297179B2, “Crystalline and salt forms of an organic compound and pharmaceutical compositions thereof” (Servier Pharmaceuticals LLC, priority 2018, dated 2025):
Converted amounts (≈) assume the structure as drawn. Structures can show the parent of a compound that is named as a salt. Where two headings read alike, the source gives them in different places.

Assays:
Type in all cases: physicochemical
[1] = Thermodynamic stability study: slurry competition among free acid Form A/B/C/D; conditions: 50° C. and 70° C.
Procedure: To investigate and compare the thermodynamic stability among the identified four crystalline forms of Compound 1 (free acid Form A/B/C/D), two stages of slurry competition experiments were conducted, of which the first one was to study the anhydrous solvent systems and the second stage was solvent systems with different water activities (aw).
In the first stage, ˜2 mg of each solid form (free acid Form A/B/C/D) was physically mixed first, followed by addition of 0.5 mL solvent to form suspension. At various slurrying conditions, a small amount of solid was isolated after ˜7 days for XRPD test.
To further explore any impact of water content on the conversion relationship, six conditions with different water activities and temperatures were applied. Approximately 2 mg of each solid form (free acid Form A/B/C/D) was mixed and suspended in 1.0 mL corresponding solvent systems. After slurry for ˜1 month, the solids were isolated for XRPD test.

[2] = Kinetic solubility in bio-relevant media (SGF/FaSSGF, FaSSIF, FeSSIF) and H2O at 37° C., with pH of supernatant; conditions: for Solubility: 37° C.; for pH: supernatant
Procedure: (§1) Weigh 100 mg of sodium chloride into a 50-mL volumetric flask. Add appropriate volume of purified water and sonicate until all solids are completely dissolved. Add sufficient purified water closely to the target volume and adjust to pH 1.6. Weigh 3 mg of FaSSIF/FeSSIF/FaSSGF powder into the volumetric flask and sonicate until the powder is completely dissolved. Dilute to target volume with purified water and mix well.
as §1, with “0.170 g of monobasic sodium phosphate, 0.021 g of sodium hydroxide and 0.31 g” for “100 mg”, “6.5.” for “1.6.”, “110” for “3”
as §1, with “0.41 mL of glacial acetic acid, 0.202 g of sodium hydroxide and 0.594 g” for “100 mg”, “5.0.” for “1.6.”, “560” for “3”
An Agilent 1260 HPLC with DAD detector was utilized and detailed chromatographic conditions for solubility analysis are listed in Table 5.
Kinetic solubility of Tris salt Form A and free acid Form D were measured in three bio-relevant media (SGF, FaSSIF and FeSSIF) at 37° C. In details, ˜30 mg solids were suspended into 4.0 mL of each medium initially and equilibrated via shaking (500 rpm) at 37° C. Approximately 0.8 mL suspension was extracted at each time point of 15/30/60/120 mins and 24 hrs. The supernatant and precipitate were separated by centrifugation (10000 rpm, ˜3 mins) followed by concentration (HPLC) and pH measurement for supernatant and the corresponding solid forms were characterized by XRPD.
Due to the thermodynamic stability of Tris salt Form C, further evaluation was conducted, including kinetic solubility in three bio-relevant media (FaSSGF/FaSSF/FeSSIF) and H2O at 37° C.

[3] = Hygroscopicity by dynamic vapor sorption (DVS); conditions: DVS, humidity varied from 0% RH to 80% RH at 25° C.
Procedure: DVS was measured via a SMS (Surface Measurement Systems) DVS Intrinsic. The relative humidity at 25° C. was calibrated against deliquescence point of LiCl, Mg(NO3)2 and KCl.

[4] = Thermodynamic stability: slurry competition between Tris salt Forms A and C; conditions: DMSO/EtOH (1:8, v/v) and EtOH, 5° C./RT/50° C./75° C., 7 days
Procedure: The thermodynamic stability relationship between Tris salt Forms A and C was investigated via slurry competition experiments in 2 process related solvent systems, DMSO/EtOH (1:8, v/v) and EtOH at 4 temperature conditions (5° C./RT/50° C./75° C.). Two stages of slurry competition experiments were conducted, of which the first stage included temperature as a variable and the second stage used newly opened reagents to minimize the effect of absorbed moisture. Typical experimental procedures are described below.
About 5-10 mg of crystalline Tris salt Form C was first dissolved in ˜1.0 mL of corresponding solvent to form nearly saturated solution under corresponding temperature (equilibrating method: stirring magnetically, ˜1000 rpm, ˜2 hrs). Then ˜15 mg of each form (crystalline Tris salt Forms A and C) was physically mixed, followed by addition of the nearly saturated solution to form a suspension. The suspensions were then stirred (˜1000 rpm) under corresponding temperature for 7 days (a small amount of solids were sampled at 2 day point in the second stage experiments). The obtained solids were isolated via centrifugation (10000 rpm, 2 mins) and tested by XRPD to confirm the form.

[5] = anhydrous solvent systems, slurry at RT, ~7 days
[6] = solvent mixtures with different water activities (aw: 0~1), RT, ~1 month
[7] = FaSSIF (blank pH 6.5), 120 mins
[8] = FeSSIF (blank pH 5.0), 120 mins

form after slurry competition (XRPD), thermodynamic stability [1, 5]	form after slurry competition (XRPD), thermodynamic stability [1, 6]	Solubility ([2]; FaSSIF, 15 mins) [µg/mL]	Solubility ([2]; FaSSIF, 30 mins) [µg/mL]	Solubility ([2]; FaSSIF, 60 mins) [µg/mL]	Solubility ([2]; FaSSIF, 120 mins) [µg/mL]	Solubility ([2]; FaSSIF, 24 hrs) [µg/mL]	Solubility ([2]; FeSSIF, 15 mins) [µg/mL]	Solubility ([2]; FeSSIF, 30 mins) [µg/mL]	Solubility ([2]; FeSSIF, 60 mins) [µg/mL]	Solubility ([2]; FeSSIF, 120 mins) [µg/mL]	Solubility ([2]; FeSSIF, 24 hrs) [µg/mL]	Solubility ([2]; SGF, 30 mins) [µg/mL]	Solubility ([2]; SGF, 60 mins) [µg/mL]	Solubility ([2]; SGF, 24 hrs) [µg/mL]	pH ([2]; FaSSIF (blank pH 6.5), 15 mins)	pH ([2]; FaSSIF (blank pH 6.5), 30 mins)	pH ([2]; FaSSIF (blank pH 6.5), 60 mins)	pH [2, 7]	pH ([2]; FaSSIF (blank pH 6.5), 24 hrs)	SMILES	also measured
converted to Form D	converted to Form D																			Cc1ccccc1-c1ccc(-c2cc(C(=O)O)c3c(c2)nnn3C)cc1 [free acid Form C]	
more stable than Form A/B/C	more stable than Form A/B/C	3.8 (≈ 11.1 µM)	4.3 (≈ 12.5 µM)	4.8 (≈ 14 µM)	5.0 (≈ 14.6 µM)	4.8 (≈ 14 µM)	5.6 (≈ 16.3 µM)	7.3 (≈ 21.3 µM)	5.9 (≈ 17.2 µM)	7.7 (≈ 22.4 µM)	6.4 (≈ 18.6 µM)	0.11 (≈ 0.32 µM)	0.14 (≈ 0.408 µM)	0.18 (≈ 0.524 µM)	6.4	6.5	6.5	6.5	6.4	Cc1ccccc1-c1ccc(-c2cc(C(=O)O)c3c(c2)nnn3C)cc1 [free acid Form D]	Solubility ([2]; FaSSIF and FeSSIF, 37 °C, fassgf or other biorelevant, thermodynamic from solid, in FaSSIF and FeSSIF, read-out: solubility): 3 to 8 µg/mL (≈ 8.74 to 23.3 µM); solubility at 120 min ([2]; SGF, 37 °C, pH 1.6, fassgf or other biorelevant, thermodynamic from solid, 120 mins): 0.13 µg/mL (≈ 0.379 µM); Solubility ([2]; SGF, 37 °C, pH 1.6, fassgf or other biorelevant, thermodynamic from solid, in SGF, read-out: solubility): < 1 µg/mL; pH ([2]; FeSSIF (blank pH 5.0), 15 mins): 5.0; pH ([2]; FeSSIF (blank pH 5.0), 30 mins): 5.0; pH ([2]; FeSSIF (blank pH 5.0), 60 mins): 5.0; pH [2, 8]: 5.0; pH ([2]; FeSSIF (blank pH 5.0), 24 hrs): 5.0; pH ([2]; SGF (blank pH 1.8), 15 mins): 2.0; pH ([2]; SGF (blank pH 1.8), 30 mins): 2.1; pH ([2]; SGF (blank pH 1.8), 60 mins): 2.1; pH ([2]; SGF (blank pH 1.8), 120 mins): 2.1; pH ([2]; SGF (blank pH 1.8), 24 hrs): 2.2; moisture uptake ([3]; listed as freeform Type D): ~5 wt %
		490	260	200	170	130	160	200	290	81	120	94	100	110	7.5	7.5	7.5	7.5	7.5	Cc1ccccc1-c1ccc(-c2cc(C(=O)O)c3c(c2)nnn3C)cc1 [Tris salt Form A]	Solubility ([2]; SGF, 15 mins): 60 µg/mL; solubility at 24 h ([2]; SGF, FaSSIF and FeSSIF, 37 °C, fassgf or other biorelevant, thermodynamic from solid, all SGF/FaSSIF/FeSSIF media, at 24 hours point): > 100 µg/mL; pH ([2]; FeSSIF (blank pH 5.0), 15 mins): 5.4; pH ([2]; FeSSIF (blank pH 5.0), 30 mins): 5.5; pH ([2]; FeSSIF (blank pH 5.0), 60 mins): 5.5; pH [2, 8]: 5.5; pH ([2]; FeSSIF (blank pH 5.0), 24 hrs): 5.5; pH ([2]; SGF (blank pH 1.8), 15 mins): 6.6; pH ([2]; SGF (blank pH 1.8), 30 mins): 7.2; pH ([2]; SGF (blank pH 1.8), 60 mins): 7.3; pH ([2]; SGF (blank pH 1.8), 120 mins): 7.4; pH ([2]; SGF (blank pH 1.8), 24 hrs): 7.4; moisture uptake [3]: ~5 wt %; form after slurry competition (XRPD), thermodynamic stability [4]: converted to Tris salt Form C

The next lines start with the molecule.

SMILES	form after slurry competition (XRPD), thermodynamic stability [1, 5]	form after slurry competition (XRPD), thermodynamic stability [1, 6]	Solubility ([2]; FaSSIF, 15 mins) [µg/mL]	Solubility ([2]; FaSSIF, 30 mins) [µg/mL]	Solubility ([2]; FaSSIF, 60 mins) [µg/mL]	Solubility ([2]; FaSSIF, 120 mins) [µg/mL]	Solubility ([2]; FaSSIF, 24 hrs) [µg/mL]	Solubility ([2]; FeSSIF, 15 mins) [µg/mL]	Solubility ([2]; FeSSIF, 30 mins) [µg/mL]	Solubility ([2]; FeSSIF, 60 mins) [µg/mL]	Solubility ([2]; FeSSIF, 120 mins) [µg/mL]	Solubility ([2]; FeSSIF, 24 hrs) [µg/mL]	Solubility ([2]; SGF, 30 mins) [µg/mL]	Solubility ([2]; SGF, 60 mins) [µg/mL]	Solubility ([2]; SGF, 24 hrs) [µg/mL]	pH ([2]; FaSSIF (blank pH 6.5), 15 mins)	pH ([2]; FaSSIF (blank pH 6.5), 30 mins)	pH ([2]; FaSSIF (blank pH 6.5), 60 mins)	pH [2, 7]	pH ([2]; FaSSIF (blank pH 6.5), 24 hrs)	also measured
Cc1ccccc1-c1ccc(-c2cc(C(=O)O)c3c(c2)nnn3C)cc1 [free acid Form B]	converted to Form D	converted to Form D																			
Cc1ccccc1-c1ccc(-c2cc(C(=O)O)c3c(c2)nnn3C)cc1 [free acid Form A]	converted to Form D	converted to Form D																			
